Measurements from US6696545B1, “Cytomodulating lipophilic peptides for modulating immune system activity and inhibiting inflammation” (Sangstat Medical Corporation, priority 1997, dated 2004).
Ends that are not written are not given here.

What was measured:
[1] = target: T1, recombinant hsc70 (Bos taurus, UniProt P19120); assay: hsc70 binding ELISA / competition with biotinylated-2702.75-84
T1 construct: purchased Stressgen, Victoria, Canada
Procedure: To determine if bc peptides are capable of binding to hsc70, protein binding assays were performed. Specifically, peptide 2702.75-84 was synthesized in a biotinylated form with biotin attached to the N-terminus via a six carbon spacer. ELISA plates (Nunc Maxisorb, Nunc, USA) were coated with 100 ng/ml of recombinant hsc70 (Stressgen, Victoria, Canada) in 100 mM Na-citrate buffer, pH 4.0 overnight at 4° C. Subsequently, remaining binding sites were blocked by incubating the plates with PBS/0.1% Tween 20 (PBS/Tween; Sigma) for 2 hours at room temperature. Unbound material was removed by washing the plates three times with PBS/Tween. Following the addition of biotinylated 2702.75-84 in PBS/Tween/1% DMSO, the plates were incubated for 2 hours at room temperature, washed three times, incubated with 0.1 μg/ml streptavidin conjugated to horseradish peroxidase (streptavidin-HRP) (Jackson ImmunoResearch Laboratories, West Grove, Pa.) and washed again. Bound streptavidin-HRP was detected using 3 mg/ml o-phenylenediamine (OPD; Sigma) in substrate buffer (SangStat, Menlo Park, Calif.). The reaction was stopped by addition of 1M HCl and absorbance (OD490-OD605) was measured using an ELISA plate reader. Binding of unlabeled peptide was measured in a competition assay. […] Bound biotinylated-2702.75-84 was then detected as described above.

[2] = system: C57BL/6 neonatal heart allograft in CBA/J recipient mice; assay: Heterotopic neonatal cardiac transplant into ear pinnae, direct injection into allograft; assay type: in vivo, mouse
Procedure: We next sought to determine if local delivery of bc peptides via plasmid-mediated gene transfer could extend in vivo transplant survival in a murine heterotopic cardiac transplant model. Specifically, C57BL/6 donor neonatal hearts were transplanted subcutaneously into the ear pinnae of CBA/J recipient mice, bc peptide, or 20 μg of plasmid DNA encoding the bc peptide of interest, was injected directly into the allograft at the time of transplantation. Survival of the allografts was determined by electrocardiogram monitoring and rejection was determined as the cessation of cardiac electrical activity. Graft survival is expressed in days (mean±SEM). Statistical significance was determined by an unpaired Student's t-test.

[3] = system: C57B1/6 heart allograft in CBA mice; assay: Vascularized fully mismatched heterotopic heart allograft model; assay type: in vivo, mouse; settings: intraperitoneal
Procedure: The immunosuppressive activity of the bc peptides was evaluated in a vascularized fully mismatched mouse heart allograft model. Specifically, abdominal heterotopic heart transplantation was performed as described previously by Ono and Lindsey, J. Thoracic Cardiovasc. Surg. 7:225 (1969)). CBA mice recipients of C57B1/6 hearts were treated daily with various doses of peptide following organ transplantation. Peptides were dissolved in DMSO and diluted in PBS (final DMSO concentration was 10%) before intraperitoneal administration. Animals were treated starting at the day of transplantation until day five or nine. Graft survival was monitored daily by direct palpation, and rejection was defined as termination of palpable cardiac contractility. The statistical significance of prolongation of heart allograft survival was calculated using the Mann-Whitney test.

[4] = system: TNF-α production by RAW264.7 macrophage cells; assay: LPS-stimulated TNF-α production, ELISA of culture supernatants; assay type: cell-based; settings: 10 μg/ml LPS, 1 to 100 μM peptide, 24 hours
Procedure: In order to determine the effect of bc peptides on the production of inflammatory cytokines, RAW264.7 macrophage cells were stimulated in culture with 10 μg/ml bacterial lipopolysaccharide (LPS) to produce the inflammatory cytokine tumor necrosis factor-α (TNF-α) (see […] et al., J. Immunol. 153:1674 (1994) and Tonetti et al., Biochem. Biophys. Res. Comm. 230:636-640 (1997)), either in the absence or presence (1 to 100 μM) of test peptide. Following incubation for 24 hours, the amount of TNF-α in the culture supernatents was determined by ELISA.

[5] = system: T-cell mediated lysis of EL4 target cells by CBA to B6 effector cells; assay: Cytotoxic T-cell activity, 51Cr release assay; assay type: cell-based, mouse; settings: concentrations up to 100 μg/ml, 4-hour incubation
Procedure: To assay the effect of peptides on cytotoxic T cell activity, CBA to B6 effector cells were prepared following a 6-day culture of 4×10^6 CBA spleen cells with 5×10^6 mitomycin-treated B6 spleen cells in wells of a 24 well plate (Nuncion Delta, Nunc, Denmark) in RPMI-1640 with 10% FBS. Effector cells were then harvested and washed. EL4 (H-2^b), a mouse lymphoma induced in C57BL/6N was used as target cells. Cultured EL4 cells were maintained and sub-cultured once every three days […] Effector (E) and target (T) cells were then added into V-shaped tissue culture plates (Nunc, Denmark) at E:T ratios of 3:1, 10:1, 30:1, 100:1, respectively. Peptides were diluted to the working concentrations with R-10 medium and added at the beginning of the 4-hour incubation period. For the determination of maximal release, 1% Triton X-100 was added to separate wells. Plates were then centrifuged for 2 min. to increase cellular contact before the 4-hour incubation period. After incubation, 75 μl supernatant from each well was collected and the amount of ^51Cr was counted using a TopCount Scintillation Counter. The degree of cell lysis was calculated using the formula below: [formula]

[6] = system: LPS-induced septic shock in mice; assay: LPS septic shock model, survival; assay type: in vivo, mouse; settings: 20 mg/kg peptide in mannitol 16 h before 100 mg/kg LPS
From the text: Administration of LPS to mice provides an accepted animal model for septic shock (see Otterbein et al., Amer. J. Physiol. 272(2):1 (1997), Albrecht et al., Hepatology 26:1553-1559 (1997), Haziot et al., J. Immunol. 154:6529-6532 (1995) and Otterbein et al., Am. J. Respir. Cell Mol. Biol. 13:595-601 (1995)). To provide further evidence of the utility of bc peptides for the treatment of inflammatory responses and inflammatory conditions (such as septic shock), we tested the effect of bc peptides on the survival of mice following administration of LPS thereto. Specifically, mice were treated with 20 mg/kg of control peptide 2705 or bc peptide in mannitol or with mannitol alone. Sixteen hours after administration of the peptide in mannitol or mannitol alone, the mice were injected with 100 mg/kg LPS and survival of the mice was monitored twice daily.

[7] = target: T2, heme oxygenase (HO, hsp32) (Mus musculus, UniProt P14901); assay: Heme oxygenase activity in spleen homogenate (bilirubin formation); assay type: biochemical; settings: control peptide
T2 construct: Spleen homogenates were used as the source of HO for all activity measurements; from tissue; host or cells: mouse spleen homogenate
T2 sequence (P14901 1-289): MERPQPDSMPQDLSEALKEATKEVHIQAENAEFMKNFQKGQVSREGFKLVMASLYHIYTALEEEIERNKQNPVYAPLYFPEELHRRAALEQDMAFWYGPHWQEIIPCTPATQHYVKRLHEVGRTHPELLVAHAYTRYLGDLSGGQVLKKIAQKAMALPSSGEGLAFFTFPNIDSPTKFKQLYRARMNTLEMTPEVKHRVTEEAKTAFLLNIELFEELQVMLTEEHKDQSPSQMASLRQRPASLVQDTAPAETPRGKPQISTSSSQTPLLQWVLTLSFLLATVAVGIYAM
Procedure: The effect of the bc peptides on hsp32 (heme oxygenase) was evaluated by measuring heme oxygenase (HO) in the presence or absence of bc peptides. Specifically, mouse spleen samples were homogenized on ice in a Tris-Cl lysis buffer (pH 7.4) containing 0.5% Triton X-100 and protease inhibitors. Samples were frozen in small aliquots until use. Spleen homogenates were used as the source of HO for all activity measurements. Biliverdin reductase was purified from rat liver by the method described by Kutty and Maines, J. Biol Chem., 256:3956 (1981). HO activity was measured by mixing 100 μl of spleen homogenate with 0.8 mM NADPH, 0.8 mM glucose-6-phosphate, 1.0 unit G-6-P dehydrogenase, 1 mM MgCl2 and 10 μl of biliverdin reductase at 4° C. The reaction was initiated by the addition of Hemin (20 μl of 2.5 mM). The reaction mixture was incubated at 37° C. in the dark for 30 min. At the end of the incubation period, any insoluble material was centrifuged and supernatants were analyzed for bilirubin concentration by a modified procedure of Hillman and Beyer, Z. Klin. Chem. 5:92 (1981) (Sigma Diagnostics, kit #552). Controls included spleen samples in the absence of the NADPH generating system and all components of the reaction mixture in the absence of the spleen homogenates.

[8] = system: T-cell proliferation (spleen cells isolated from CBA mice stimulated with anti-CD3 monoclonal antibody); assay: Antiproliferative activity: anti-CD3 stimulated spleen cells, [3H]-TdR incorporation; assay type: cell-based, mouse; settings: 3 days
From the text: Adult 6-8 week old male C57BL6/J (B6, […]), Balb/c(H-2^d) and CBA/J (H-2^k) mice were purchased from the Jackson Laboratory, Bar Harbor, Me. They were kept and maintained in the animal facility in the SangStat Medical Corporation according to NIH guidelines and regulations of the Department of Health.
Peptides were synthesized at synt:em (Nimes, France) using an automated peptide synthesizer and Fmoc chemistry. All peptides were synthesized as amides and then converted to acetate salts. Peptides were purified by preparative reverse phase HPLC and shown to be >95% homogenous by analytical reverse phase HPLC. Amino acid content was confirmed by amino acid analysis. Before use, peptides were first dissolved in 1 volume of DMSO (Sigma) followed by addition of 99 volume of culture medium. The final concentration of DMSO in culture was not greater than 0.25%. […]
Spleen cells isolated from CBA mice were then stimulated (2×10^5/well) with anti-CD3 monoclonal antibody (Pharmingen, San Diego) at a final concentration of 0.1 to 1 μg/ml in 96-well, round-bottom microculture plates (Nunc, Denmark). bc peptides at various concentrations were added at the beginning of the culture. […] Cells were then harvested using a Filtermate 196 Harvester (Packard, Downers Grove, Ill.) and the degree of thymidine incorporation was measured using a TopCount Microplate Scintillation Counter (Packard).

T1 sequence (P19120 2-650 limits assumed): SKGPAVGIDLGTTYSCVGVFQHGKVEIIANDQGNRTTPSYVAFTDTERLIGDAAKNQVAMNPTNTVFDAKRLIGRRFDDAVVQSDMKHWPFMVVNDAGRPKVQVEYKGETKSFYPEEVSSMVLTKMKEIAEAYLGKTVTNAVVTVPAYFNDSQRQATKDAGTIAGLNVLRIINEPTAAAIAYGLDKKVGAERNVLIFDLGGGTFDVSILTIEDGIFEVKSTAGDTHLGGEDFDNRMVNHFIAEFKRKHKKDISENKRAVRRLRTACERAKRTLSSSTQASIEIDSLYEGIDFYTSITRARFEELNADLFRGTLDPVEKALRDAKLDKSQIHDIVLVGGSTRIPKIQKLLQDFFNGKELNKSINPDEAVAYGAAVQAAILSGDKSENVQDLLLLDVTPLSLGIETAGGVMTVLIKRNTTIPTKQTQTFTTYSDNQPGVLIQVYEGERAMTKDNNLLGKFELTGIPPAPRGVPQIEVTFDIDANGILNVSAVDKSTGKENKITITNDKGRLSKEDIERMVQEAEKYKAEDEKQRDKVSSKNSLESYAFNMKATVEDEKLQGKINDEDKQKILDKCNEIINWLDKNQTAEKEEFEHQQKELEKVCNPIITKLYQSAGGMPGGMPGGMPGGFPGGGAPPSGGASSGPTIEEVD

For “biotinylated-2702.75-84: peptide 2702.75-84 with biotin attached to the N-terminus via a six carbon spacer”, the “binding to hsc70 coated ELISA plates” value ([1]; direct binding, streptavidin-HRP detection) was “dose dependent binding”.

CC[C@H](C)[C@H](NC(=O)[C@H](CCCNC(=N)N)NC(=O)[C@H](CC(C)C)NC(=O)[C@H](CC(N)=O)NC(=O)[C@H](CCC(=O)O)NC(=O)[C@@H](N)CCCNC(=N)N)C(=O)N[C@@H](C)C(=O)N[C@@H](CC(C)C)C(=O)N[C@@H](CCCNC(=N)N)C(=O)N[C@@H](Cc1ccc(O)cc1)C(N)=O [2702.75-84, Arg-Glu-Asn-Leu-Arg-Ile-Ala-Leu-Arg-Tyr] was tested, and the “Graft survival (mean±SEM)” value ([2]; 1 μg peptide injected directly into the allograft, untreated controls 13.9±0.9) was 13.3 ± 0.75 days, the “Graft survival (mean±SEM)” value ([2]; 400 μg peptide injected directly into the allograft) was 22.0 ± 0.58 days and the IC50 ([1]; competition with 3 μM biotinylated-2702.75-84, 3 hrs room temperature, read-out: Half maximal inhibition (IC50) of binding of biotinylated-2702.75-84 to hsc70) was 7 ± 3 µM. For the same molecule, the “effect on transplant survival over the control treatment” value ([3]; 40 mg/kg/day) was “no observable effect” and the heart allograft survival ([3]; 80 mg/kg/day (days 0-9), PBS/DMSO controls 8±1.4 days) was 10.7±2.6 days.

RVNLPIALRY [D2RP, control peptide] was tested, and the “inhibition of the production of TNF-α” value [4] was “no ability to inhibit”.

With REDLRTLLRY [compound 2705] the “effect on T-cell mediated target cell lysis” value [5] was “no effect”, the “survival of mice after LPS” value [6] was “died on day one” and the “effect on HO activity” value [7] was “inactive”. For the same molecule, the “effect on T-cell proliferation” value [8] was “no effect”.
